Experimental data as given in patent US9932309B2, “2-oxo-3,4-dihydropyridine-5-carboxylates and their use” (UNIVERSITE DE LILLE 2 DROIT ET SANTE, priority 2014, dated 2018).

Key:
hTGR5 = target: T1, hTGR5 (Homo sapiens, UniProt Q8TDU6); experiment: TGR5/CRE Luciferase Assay (hTGR5); format: cell-based; details: for EC50: HEK 293 cells co-transfected with pCMV tag4b-TGR5h and pCRE TA-Luciferase, overnight incubation; for hTGR5 % trans: percentage of the 10 μM LCA value, HEK 293 cells transfected with hTGR5
T1 construct: expressed in transfected cells; host or cells: HEK293 cells, transiently co-transfected with the pCRE TA-Luciferase reporter
T1 sequence (Q8TDU6 1-330): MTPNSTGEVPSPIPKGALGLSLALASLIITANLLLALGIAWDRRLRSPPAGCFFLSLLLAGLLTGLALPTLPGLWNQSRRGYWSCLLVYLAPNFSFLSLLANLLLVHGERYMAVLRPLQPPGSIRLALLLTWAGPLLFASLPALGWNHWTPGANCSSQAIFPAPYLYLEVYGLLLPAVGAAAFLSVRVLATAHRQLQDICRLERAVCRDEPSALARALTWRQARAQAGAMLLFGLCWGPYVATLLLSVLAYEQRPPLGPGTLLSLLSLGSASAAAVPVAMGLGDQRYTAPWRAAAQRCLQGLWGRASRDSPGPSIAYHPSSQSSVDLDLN
Method: (§1) TGR5/CRE Luciferase Assay
(§2) In the following Tables TGR5 activation by compounds of the invention and subsequent increase in intracellular cAMP were evaluated using a luciferase reporter gene assay. Human embryonic kidney (HEK) 293 cells were transiently co-transfected with pCMV tag4b-TGR5 h (to follow hTGR5 activation) or pCMV AC6-TGR5m (to follow mTGR5 activation) expression plasmids and the pCRE TA-Luciferase reporter plasmid using the JET PEI reagent (Polyplus transfection). Transfected cells were seeded in 96-well plates and incubated overnight with the test compounds at increasing concentrations tested in duplicate. Lithocolic acid (LCA) at 10 μM was used as a positive reference compound. The cAMP-dependent luciferase expression was followed using the BrightGlo reagent according to the manufacturer (Promega) instructions. Luminescence was read with a Mithras plate reader (Berthold) or a Victor3™ V1420 (Perkin Elmer). […] Concentration-response curves were fitted by a nonlinear regression analysis to a 4 parameter logistic equation

mTGR5 = target: T2, mTGR5 (Mus musculus, UniProt Q80SS6); experiment: TGR5/CRE Luciferase Assay (mTGR5); format: cell-based; details: for mTGR5 % trans: percentage of the 10 μM LCA value, HEK 293 cells transfected with mTGR5; for EC50: HEK 293 cells co-transfected with pCMV AC6-TGR5m and pCRE TA-Luciferase, overnight incubation
T2 construct: expressed in transfected cells; host or cells: HEK293 cells, transiently co-transfected with the pCRE TA-Luciferase reporter
T2 sequence (Q80SS6 1-329): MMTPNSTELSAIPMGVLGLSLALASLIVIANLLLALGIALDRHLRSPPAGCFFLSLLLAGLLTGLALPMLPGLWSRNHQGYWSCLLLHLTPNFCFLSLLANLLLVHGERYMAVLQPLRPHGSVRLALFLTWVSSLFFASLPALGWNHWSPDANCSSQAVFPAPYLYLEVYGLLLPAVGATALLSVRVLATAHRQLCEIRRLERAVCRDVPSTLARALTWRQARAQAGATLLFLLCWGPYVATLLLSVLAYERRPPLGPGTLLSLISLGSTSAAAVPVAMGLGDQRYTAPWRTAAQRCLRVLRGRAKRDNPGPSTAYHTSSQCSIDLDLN
Method: as §1, §2

Row | SMILES | EC50 (hTGR5) [nM] | hTGR5 % trans (hTGR5) [%] | mTGR5 % trans (mTGR5) [%] | EC50 (mTGR5) [nM]
1 | COc1ccc(C2CC(=O)NC(C)=C2C(=O)OCc2ccccc2)cc1 (centres unmarked) [Compound 6, 4-(4-Methoxy-phenyl)-2-methyl-6-oxo-1,4,5,6-tetrahydro-pyridine-3-carboxylic acid benzyl ester] | 12800 |  |  | 
2 | CC1=C(C(=O)OCc2ccccc2)C(c2cccc(Cl)c2)CC(=O)N1 (centres unmarked) [Compound 11, 4-(3-Chloro-phenyl)-2-methyl-6-oxo-1,4,5,6-tetrahydro-pyridine-3-carboxylic acid benzyl ester] |  |  | 10 | 
3 | CC1=C(C(=O)OCc2ccccc2)C(c2ccc(Cl)cc2)CC(=O)N1 (centres unmarked) [Compound 12, Benzyl 4-(4-chlorophenyl)-6-methyl-2-oxo-3,4-dihydro-1H-pyridine-5-carboxylate] |  |  | 52 | 4500
4 | CC1=C(C(=O)OCc2ccccc2)C(c2ccc(Cl)cc2F)CC(=O)N1 (centres unmarked) [Compound 15, benzyl 4-(4-chloro-2-fluoro-phenyl)-6-methyl-2-oxo-3,4-dihydro-1H-pyridine-5-carboxylate] | 3900 |  |  | 
5 | CC1=C(C(=O)OCc2ccccc2)C(c2ccc(Br)cc2)CC(=O)N1 (centres unmarked) [Compound 16, benzyl 4-(4-bromophenyl)-6-methyl-2-oxo-3,4-dihydro-1H-pyridine-5-carboxylate] |  |  | 21 | 1700
6 | CCC1=C(C(=O)OCc2ccccc2)C(c2ccc(Cl)cc2)CC(=O)N1C (centres unmarked) [Compound 18, Benzyl 4-(4-chlorophenyl)-6-ethyl-1-methyl-2-oxo-3,4-dihydropyridine-5-carboxylate] | 1400 | 34 |  | 
7 | CN1C=C(C(=O)OCc2ccccc2)C(c2ccc(Cl)cc2)CC1=O (centres unmarked) [Compound 24, Benzyl 4-(4-chlorophenyl)-1-methyl-2-oxo-3,4-dihydropyridine-5-carboxylate] |  |  | 34 | 5800
8 | CCN1C(=O)CC(c2ccc(Cl)cc2)C(C(=O)OCc2ccccc2)=C1C (centres unmarked) [Compound 34, Benzyl 4-(4-chlorophenyl)-1-ethyl-6-methyl-2-oxo-3,4-dihydropyridine-5-carboxylate] |  |  | 70 | 800
9 | CCCN1C(=O)CC(c2ccc(Cl)cc2)C(C(=O)OCc2ccccc2)=C1C (centres unmarked) [Compound 35, Benzyl 4-(4-chlorophenyl)-6-methyl-2-oxo-1-propyl-3,4-dihydropyridine-5-carboxylate] |  |  | 76 | 800
10 | CCCCN1C(=O)CC(c2ccc(Cl)cc2)C(C(=O)OCc2ccccc2)=C1C (centres unmarked) [Compound 36, Benzyl 1-butyl-4-(4-chlorophenyl)-6-methyl-2-oxo-3,4-dihydropyridine-5-carboxylate] | 600 | 54 |  | 
11 | CC1=C(C(=O)OCc2ccccc2)C(c2ccc(Cl)cc2)CC(=O)N1CC1CC1 (centres unmarked) [Compound 43, Benzyl 4-(4-chlorophenyl)-1-(cyclopropylmethyl)-6-methyl-2-oxo-3,4-dihydropyridine-5-carboxylate] |  |  |  | 300
12 | CC1=C(C(=O)OCc2ccccc2)C(c2ccc(Cl)cc2)CC(=O)N1CCN(C)C (centres unmarked) [Compound 50, Benzyl 4-(4-chlorophenyl)-1-[2-(dimethylamino)ethyl]-6-methyl-2-oxo-3,4-dihydropyridine-5-carboxylate] |  |  | 77 | 3600
13 | COC(=O)CN1C(=O)CC(c2ccc(Cl)cc2)C(C(=O)OCc2ccccc2)=C1C (centres unmarked) [Compound 57, Benzyl 4-(4-chlorophenyl)-1-(2-methoxy-2-oxo-ethyl)-6-methyl-2-oxo-3,4-dihydropyridine-5-carboxylate] |  |  |  | 200

Results, then the molecule that gave them:

Row | EC50 (hTGR5) [nM] | hTGR5 % trans (hTGR5) [%] | mTGR5 % trans (mTGR5) [%] | EC50 (mTGR5) [nM] | SMILES
14 | 20 |  |  |  | COc1ccccc1COC(=O)C1=C(C)N(C[C@H]2CCCO2)C(=O)C[C@H]1c1ccc(Cl)cc1 (racemic) [Compound 67, (2-methoxyphenyl)methyl (4S)-4-(4-chlorophenyl)-6-methyl-2-oxo-1-[[(2R)-tetrahydrofuran-2-yl]methyl]-3,4-dihydropyridine-5-carboxylate]
15 | 1 |  |  |  | COc1ccccc1COC(=O)C1=C(C)N(C[C@H]2CCCO2)C(=O)C[C@H]1c1ccc(Cl)nc1 (racemic) [Example 148, (2-methoxyphenyl)methyl (4S)-4-(6-chloro-3-pyridyl)-6-methyl-2-oxo-1-[[(2R)-tetrahydrofuran-2-yl]methyl]-3,4-dihydropyridine-5-carboxylate and 2-methoxyphenyl)methyl (4R)-4-(6-chloro-3-pyridyl)-6-methyl-2-oxo-1-[[(2S)-tetrahydrofuran-2-yl]methyl]-3,4-dihydropyridine-5-carboxylate]
16 | 37 | 107 |  |  | COc1ccccc1COC(=O)C1=C(C)N(C[C@@H]2CCCO2)C(=O)C[C@H]1c1ccc(Cl)nc1 (racemic) [Example 159, (2-Methoxyphenyl)methyl-(4S)-4-(6-chloro-3-pyridyl)-6-methyl-2-oxo-1-[[(2S)-tetrahydrofuran-2-yl]methyl]-3,4-dihydropyridine-5-carboxylate and (2-methoxyphenyl)methyl-(4R)-4-(6-chloro-3-pyridyl)-6-methyl-2-oxo-1-[[(2R)-tetrahydrofuran-2-yl]methyl]-3,4-dihydropyridine-5-carboxylate]
17 | 100 |  |  |  | COCCN1C(=O)CC(c2ccc(Cl)cc2)C(C(=O)OCc2ccccc2OC)=C1C (centres unmarked) [Compound 64, (2-methoxyphenyl)methyl 4-(4-chlorophenyl)-1-(2-methoxyethyl)-6-methyl-2-oxo-3,4-dihydropyridine-5-carboxylate]
18 |  |  | 107 | 300 | COc1ccccc1COC(=O)C1=C(C)N(CCO)C(=O)CC1c1ccc(Cl)cc1 (centres unmarked) [Compound 65, (2-methoxyphenyl)methyl 4-(4-chlorophenyl)-1-(2-hydroxyethyl)-6-methyl-2-oxo-3,4-dihydropyridine-5-carboxylate]
19 |  |  | 93 | 30 | COC(=O)CN1C(=O)CC(c2ccc(Cl)cc2)C(C(=O)OCc2ccccc2OC)=C1C (centres unmarked) [Compound 73, (2-methoxyphenyl)methyl 4-(4-chlorophenyl)-1-(2-methoxy-2-oxo-ethyl)-6-methyl-2-oxo-3,4-dihydropyridine-5-carboxylate]
20 | 500 | 67 |  |  | COCCN1C(=O)CC(c2ccc(Cl)cc2)C(C(=O)OCc2ccccc2Cl)=C1C (centres unmarked) [Example 87, (2-chlorophenyl)methyl 4-(4-chlorophenyl)-1-(2-methoxyethyl)-6-methyl-2-oxo-3,4-dihydropyridine-5-carboxylate]
21 | 1100 | 55 |  |  | COCCN1C(=O)CC(c2ccc(Cl)cc2)C(C(=O)OCCCc2ccccc2)=C1C (centres unmarked) [Example 111, 3-phenylpropyl 4-(4-chlorophenyl)-1-(2-methoxyethyl)-6-methyl-2-oxo-3,4-dihydropyridine-5-carboxylate]
22 | 1100 | 57 |  |  | COCCN1C(=O)CC(c2ccc(Cl)cc2)C(C(=O)OCC2CCCCC2)=C1C (centres unmarked) [Example 113]
23 | 8 | 103 |  |  | COc1ccccc1COC(=O)C1=C(C)N(C[C@H]2CCCO2)C(=O)C[C@H]1c1ccc(Cl)cc1 [Example 167, (2-Methoxyphenyl)methyl-(4S)-4-(4-chlorophenyl)-6-methyl-2-oxo-1-[[(2R)-tetrahydrofuran-2-yl]methyl]-3,4-dihydropyridine-5-carboxylate]
